Molecules are shown by their SMILES. Counter-ions that a name gives are not always drawn.

The term Ki denotes the equilibrium dissociation constant of an inhibitor or competing ligand from its target.

The assay deals with T1, human MCH1R receptor (Homo sapiens, UniProt Q99705).
T1 construct: host or cells: CHO-K1
T1 sequence (Q99705 whole entry): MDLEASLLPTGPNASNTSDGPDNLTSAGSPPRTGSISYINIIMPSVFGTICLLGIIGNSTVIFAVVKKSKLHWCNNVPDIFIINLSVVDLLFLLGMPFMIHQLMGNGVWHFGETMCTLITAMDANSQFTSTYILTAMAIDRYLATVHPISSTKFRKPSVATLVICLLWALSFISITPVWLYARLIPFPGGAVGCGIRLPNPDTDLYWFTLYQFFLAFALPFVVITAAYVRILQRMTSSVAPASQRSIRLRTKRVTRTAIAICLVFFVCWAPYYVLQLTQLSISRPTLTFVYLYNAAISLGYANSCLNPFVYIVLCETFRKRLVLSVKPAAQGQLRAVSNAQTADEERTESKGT
Nature of the assay: MCH1R receptor binding by SPA ([125I]-MCH displacement). As to conditions: 0.2 nM [125I]-MCH, membranes of CHO-K1 cells expressing hMCH1 receptor, WGA SPA beads; Ki calculated from IC50. The protocol:
The compounds according to the invention were evaluated for their binding to the human MCH1R receptor by the following method:
Compounds: MCH peptide was purchased from Phoenix pharmaceuticals. (Phe^13, [^125I]Tyr^19 Melanine-Concentrating Hormone (human, mouse, rat) ([^125I]-MCH) was obtained from NEN life Science Products. Inc. Boston, Mass. Wheat germ agglutinine SPA beads (RPNQ 0001) were obtained from Amersham-Pharmacia Biotech. All other reagents used are of highest purity from different resources available. Protein Kits, Micro BCA™ Protein Assay Reagent Kit (Cat No. 23235) were purchased from Piece, Rockford, Ill., USA.
CHO-K1 cells expressing hMCH1 receptor were purchased from Euroscreen.
CHO-K1 hMCHR1 (Euroscreen, Brussels, Belgium, # ES-370-C) were cultivated in Nutrient mixture Ham's F-12 with Glutamax I (Gibco-BRL #31765-027) supplemented with 10% heat-inactivated foetal calf serum (FCS, Gibco-BRL #10108-165) and 400 μg/ml geniticin (Gibco-BRL #1140-0359). The cells were sub-cultivated twice weekly with split ratio=1:20-1:30. For membrane preparation the cells were cultured in […] and the cells were harvested when 90% confluent.
When the cells reached more than 90% confluence, dishes (500 cm^2) were rinsed twice with 20 ml PBS (Ca^2+ and Mg^2+ free). Buffer A, which contains Tris.HCl (15), MgCl2.6H2O (2), EDTA (0.3), EGTA (1) in mM with pH 7.5, 25 ml was added and cells were suspended using a window scraper. The cells were collected in 50 ml Falcon tube pre-cooled on ice and then centrifuged for 3 minutes at 1500 g at 4° C. […]
The radio labeled [^125I]-MCH was diluted with cold MCH in ratio 1:3. […] The results were calculated using Excel program and the curves were drawn using a program GraphPad Prism.
For screening of the substances the amount of the beads used was 0.25 mg/well and the amount of the membrane protein was 4 μg/well 0.2 nM of labeled MCH was used. […] The samples were counted using Microbeta counter (Wallac Trilux 1450 Micro beta counter, Wallac, Finland) for 2 minutes and the results were calculated by using the computer program Activity Base. […]
Take `C=CCN(C(=O)Nc1ccc(Cl)c(C(F)(F)F)c1)C1CCC2(c3ccc(OC)c(OC)c3)CCN(C)C2C1` (stereo not drawn) [Example 159, N-ally-N′-[4-chloro-3-(trifluoromethyl)phenyl]-N-[(3aS*,6R*,7aS*)-3a-(3,4-dimethoxyphenyl)-1-methyloctahydro-1H-indol-6-yl]urea]: the Ki is 75 nM.
On to `CCOc1ccc([C@@]23CC[C@@H](NC(=O)Nc4ccc(F)c(F)c4)C[C@@H]2N(C)CC3)cc1OCC` (relative stereo) [Example 208, N-[(3aS*,6R*,7aS*)-3a-(3,4-diethoxyphenyl)-1-methyloctahydro-1H-indol-6-yl]-N′-(3,4-difluoro]henyl)urea trifluoroacetate], for which the Ki is 258 nM.
With `COc1ccc([C@@]23CC[C@@H](NC(=O)Nc4ccc(OC(F)(F)F)cc4)C[C@@H]2N(C)CC3)cc1OC` (relative stereo) [Example 70, N-[(3aS*,6R*,7aS*)-3a-(3,4-dimethoxyphenyl)-1-methyloctahydro-1H-indol-6-yl]-N′-[4-(trifluoromethoxy)phenyl]urea trifluoroacetate] the figure was 52 nM.
